Assay results reported in patent US8846601B2, “Melanocortin receptor-specific peptides” (Palatin Technologies, Inc., priority 2009, dated 2014).
Like-named read-outs stand apart in the source and are kept apart here. Peptide text beside a SMILES is read from it.

Columns and labels:
hMC3-R [1] = molecular target: T1, hMC3-R (Homo sapiens (Human), UniProt P41968); assay: Competitive binding using Eu-labeled NDP-α-MSH, MC3-R
Protocol: (§1) A competitive inhibition binding assay is performed using membrane homogenates prepared from HEK-293 cells that express recombinant hMC4-R, hMC3-R, or hMC5-R, and from B-16 mouse melanoma cells (containing endogenous MC1-R). In some instances, HEK-293 cells that express recombinant hMC1-R were employed. In the examples that follow, all MC3-R, MC4-R and MC5-R values are for human recombinant receptors. MC1-R values are for B-16 mouse melanoma cells, unless the heading is “hMC1-R”, in which case the value is for human recombinant MC1-R. Assays were performed in 96 well GF/B Millipore multiscreen filtration plates (MAFB NOB10) pre-coated with 0.5% bovine serum albumin (Fraction V). […] Filters were dried and counted in a gamma counter for bound radioactivity. […] Maximal specific binding (100%) was defined as the difference in radioactivity (cpm) bound to cell membranes in the absence and presence of 1 μM NDP-α-MSH. […] Ki values for test peptides of the present invention were determined using Graph-Pad Prism® curve-fitting software.
Alternatively, a competitive inhibition binding assay was performed employing Eu-NDP-α-MSH (PerkinElmer Life Sciences catalog No. AD0225) with determination by time-resolved fluorometry (TRF) of the lanthanide chelate. […] The plates were incubated on a shaker for 15 minutes and read at 340 nm excitation and 615 nm emission wavelengths. […]

Male Sprague-Dawley rats [2] = assay: Induction of penile erection in male rats; assay type: in vivo, rat; details: for induction of penile erection: male Sprague-Dawley rats, 60 minute observation, No. 154 as trifluoracetic acid salt, No. 155 as acetate salt
Description: Each dose group contained six or seven animals, with video observation for sixty minutes following administration.

hMC4-R [3] = molecular target: T2, hMC4-R (Homo sapiens (Human), UniProt P32245); assay: Assay for agonist activity: cAMP accumulation in HEK-293 cells that express hMC4-R; details: for functional status at MC4-R (agonist / partial agonist): agonist = intrinsic activity 70% or higher, partial agonist 10-70%
Protocol: By “intrinsic activity” is meant the maximal functional activity achievable by a compound in a specified melanocortin receptor expressing cell system, such as the maximal stimulation of adenylyl cyclase.
Accumulation of intracellular cAMP was examined as a measure of the ability of the peptides of the present invention to elicit a functional response in HEK-293 cells that express MC4-R. Confluent HEK-293 cells that express recombinant hMC4-R were detached from culture plates by incubation in enzyme-free cell dissociation buffer. Dispersed cells were suspended in Earle's Balanced Salt Solution containing 10 mM HEPES (pH 7.5), 1 mM MgCl2, 1 mM glutamine, 0.5% albumin and 0.3 mM 3-isobutyl-1-methyl-xanthine (IBMX), a phosphodiesterase inhibitor. […] Cells were exposed for 15 minutes at 37° C. to peptides of the present invention dissolved in DMSO (final DMSO concentration of 1%) at a concentration range of 0.05-5000 nM in a total assay volume of 200 μL. […] Data analysis was performed by nonlinear regression analysis with Graph-Pad Prism® software. The maximum efficacies of the test peptides of the present invention were compared to that achieved by the reference melanocortin agonist NDP-αMSH.

Male Sprague-Dawley rats [4] = assay: Rat feeding studies: food intake and body weight change; assay type: in vivo; details: for food intake and rate of change in body weight: rat feeding studies, bremelanotide as positive control; for decrease in food consumption compared to control: rats
Protocol: Change in food intake and body weight was evaluated for selected peptides administered by intravenous (IV) or subcutaneous injection routes. Male Sprague-Dawley rats were obtained from Hilltop Lab Animals, Inc. (Scottsdale, Pa.) or other vendors. Animals were individually housed in conventional polystyrene hanging cages and maintained on a controlled 12 hour on/off light cycle. Water and pelleted food was provided ad libitum. The rats were dosed IV with vehicle or selected peptides (0.3 to 1.0 mg/kg), or dosed subcutaneously with vehicle or selected peptides (doses up to 30 mg/kg). […] The changes in body weight and food intake for the 48 hour and 72 hour periods after dosing can also be measured to determine reversal of changes in body weight and food intake effects back to baseline levels.

[5] = molecular target: T3, MC1-R (B-16 mouse melanoma cells) (Mus musculus (Mouse), UniProt Q01727); assay: Competitive inhibition binding assay using [I125]-NDP-α-MSH, MC1-R
Protocol: as §1

[6] = molecular target: T3, MC1-R (B-16 mouse melanoma cells); assay: Competitive binding using Eu-labeled NDP-α-MSH, MC1-R
Protocol: A competitive inhibition binding assay is performed using membrane homogenates prepared from HEK-293 cells that express recombinant hMC4-R, hMC3-R, or hMC5-R, and from B-16 mouse melanoma cells (containing endogenous MC1-R). In some instances, HEK-293 cells that express recombinant hMC1-R were employed. In the examples that follow, all MC3-R, MC4-R and MC5-R values are for human recombinant receptors. MC1-R values are for B-16 mouse melanoma cells, unless the heading is “hMC1-R”, in which case the value is for human recombinant MC1-R. Assays were performed in 96 well GF/B Millipore multiscreen filtration plates (MAFB NOB10) pre-coated with 0.5% bovine serum albumin (Fraction V). Membrane homogenates were incubated with 0.2 nM (for hMC4-R) 0.4 nM (for MC3-R and MC5-R) or 0.1 nM (for mouse B16 MC1-R or hMC1-R) [I^125]-NDP-α-MSH (Perkin Elmer) and increasing concentrations of test peptides of the present invention in buffer containing 25 mM HEPES buffer (pH 7.5) with 100 mM NaCl, 2 mM CaCl2, 2 mM MgCl2, 0.3 mM 1,10-phenanthroline, and 0.2% bovine serum albumin. After incubation for 60 minutes at 37° C., the assay mixture was filtered and the membranes washed three times with ice-cold buffer. Filters were dried and counted in a gamma counter for bound radioactivity. […] Maximal specific binding (100%) was defined as the difference in radioactivity (cpm) bound to cell membranes in the absence and presence of 1 μM NDP-α-MSH. […] Ki values for test peptides of the present invention were determined using Graph-Pad Prism® curve-fitting software.
Alternatively, a competitive inhibition binding assay was performed employing Eu-NDP-α-MSH (PerkinElmer Life Sciences catalog No. AD0225) with determination by time-resolved fluorometry (TRF) of the lanthanide chelate. […] The plates were incubated on a shaker for 15 minutes and read at 340 nm excitation and 615 nm emission wavelengths. […] Ki values were determined by curve-fitting with Graph-Pad Prism® software using a one-site fixed-slope competition binding model.

hMC3-R [7] = molecular target: T1, hMC3-R; assay: Competitive inhibition binding assay using [I125]-NDP-α-MSH, MC3-R
Protocol: (§2) A competitive inhibition binding assay is performed using membrane homogenates prepared from HEK-293 cells that express recombinant hMC4-R, hMC3-R, or hMC5-R, and from B-16 mouse melanoma cells (containing endogenous MC1-R). In some instances, HEK-293 cells that express recombinant hMC1-R were employed. In the examples that follow, all MC3-R, MC4-R and MC5-R values are for human recombinant receptors. […] Membrane homogenates were incubated with 0.2 nM (for hMC4-R) 0.4 nM (for MC3-R and MC5-R) or 0.1 nM (for mouse B16 MC1-R or hMC1-R) [I^125]-NDP-α-MSH (Perkin Elmer) and increasing concentrations of test peptides of the present invention in buffer containing 25 mM HEPES buffer (pH 7.5) with 100 mM NaCl, 2 mM CaCl2, 2 mM MgCl2, 0.3 mM 1,10-phenanthroline, and 0.2% bovine serum albumin. After incubation for 60 minutes at 37° C., the assay mixture was filtered and the membranes washed three times with ice-cold buffer. Filters were dried and counted in a gamma counter for bound radioactivity. […] Maximal specific binding (100%) was defined as the difference in radioactivity (cpm) bound to cell membranes in the absence and presence of 1 μM NDP-α-MSH. […] Each assay was conducted in triplicate and the actual mean values are described, with results less than 0% reported as 0%. Ki values for test peptides of the present invention were determined using Graph-Pad Prism® curve-fitting software.

hMC1-R [8] = molecular target: T4, hMC1-R (Homo sapiens (Human), UniProt Q01726); assay: Functional assay (EC50 and intrinsic activity) at hMC1-R; assay type: cell-based
[9] = Pharmacokinetic studies, rat model, subcutaneous injection; details: in vivo, sc, formulation as in Section 9.7, read-out: circulation half life (converted)
hMC1-R [10] = molecular target: T4, hMC1-R; assay: Competitive inhibition binding assay, human recombinant MC1-R
Protocol: as §2

hMC4-R [11] = molecular target: T2, hMC4-R; assay: Competitive inhibition binding assay using [I125]-NDP-α-MSH, hMC4-R membranes
Method in brief: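 Membranes from HEK-293 cells expressing recombinant hMC1-R or hMC4-R incubated with 0.1 nM (MC1-R) or 0.2 nM (MC4-R) [I125]-NDP-α-MSH and increasing peptide concentrations in HEPES pH 7.5, 60 min at 37 °C; filtered, gamma counted.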

[12] = 1 mg/kg, 0-2, 0-4 and 0-20 hour periods

T4 sequence (Q01726 whole entry): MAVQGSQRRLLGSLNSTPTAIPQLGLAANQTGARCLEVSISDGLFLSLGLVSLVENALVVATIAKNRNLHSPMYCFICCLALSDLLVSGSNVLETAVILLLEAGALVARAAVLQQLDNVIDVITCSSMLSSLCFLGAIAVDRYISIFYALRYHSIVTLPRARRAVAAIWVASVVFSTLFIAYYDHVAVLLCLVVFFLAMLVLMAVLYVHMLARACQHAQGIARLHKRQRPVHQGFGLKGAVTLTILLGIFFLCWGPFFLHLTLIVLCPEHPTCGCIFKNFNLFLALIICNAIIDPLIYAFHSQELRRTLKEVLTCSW
T2 sequence (P32245 whole entry): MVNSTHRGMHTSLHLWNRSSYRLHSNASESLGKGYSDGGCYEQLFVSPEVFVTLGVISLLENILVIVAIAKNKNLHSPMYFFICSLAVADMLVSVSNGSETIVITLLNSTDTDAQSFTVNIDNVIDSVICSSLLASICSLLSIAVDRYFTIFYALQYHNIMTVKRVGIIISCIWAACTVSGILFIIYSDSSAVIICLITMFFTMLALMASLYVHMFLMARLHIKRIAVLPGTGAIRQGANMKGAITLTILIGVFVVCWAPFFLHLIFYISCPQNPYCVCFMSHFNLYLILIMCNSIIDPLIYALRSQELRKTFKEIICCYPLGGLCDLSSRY
T1 sequence (P41968 whole entry): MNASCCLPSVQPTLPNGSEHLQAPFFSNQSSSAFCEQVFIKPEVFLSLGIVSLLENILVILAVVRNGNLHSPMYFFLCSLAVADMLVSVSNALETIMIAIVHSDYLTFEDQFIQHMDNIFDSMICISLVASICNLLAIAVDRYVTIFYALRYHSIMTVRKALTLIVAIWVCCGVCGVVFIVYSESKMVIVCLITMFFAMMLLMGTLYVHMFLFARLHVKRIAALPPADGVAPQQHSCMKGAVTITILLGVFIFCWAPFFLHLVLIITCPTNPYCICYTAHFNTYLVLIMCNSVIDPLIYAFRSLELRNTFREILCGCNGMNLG
T3 sequence (Q01727 whole entry): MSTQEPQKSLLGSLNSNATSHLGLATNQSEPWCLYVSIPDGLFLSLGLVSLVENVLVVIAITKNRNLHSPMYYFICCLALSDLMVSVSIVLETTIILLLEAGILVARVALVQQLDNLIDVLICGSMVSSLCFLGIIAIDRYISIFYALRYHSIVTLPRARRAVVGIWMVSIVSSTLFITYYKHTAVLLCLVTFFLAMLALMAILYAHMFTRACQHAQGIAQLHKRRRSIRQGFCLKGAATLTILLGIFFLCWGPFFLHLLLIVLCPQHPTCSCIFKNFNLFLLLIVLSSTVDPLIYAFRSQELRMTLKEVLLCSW

| SMILES | Ki (hMC3-R [1]) | functional status at MC4-R (agonist / partial agonist) (hMC4-R [3]) | food intake and rate of change in body weight (Male Sprague-Dawley rats [4]) | decrease in food consumption compared to control (Male Sprague-Dawley rats [4]; [12]) | Ki [5] | Ki [6] | EC50 (hMC1-R [8]) | half-life [9] | induction of penile erection (Male Sprague-Dawley rats [2]; subcutaneous) | Ki (hMC1-R [10]) | also measured |
| --- | --- | --- | --- | --- | --- | --- | --- | --- | --- | --- | --- |
| CC(=O)N[C@@H](CCCNC(=N)N)C(=O)N[C@H]1CC(=O)NCCCC[C@@H](C(N)=O)NC(=O)[C@H](Cc2c[nH]c3ccccc23)NC(=O)[C@H](CCCNC(=N)N)NC(=O)[C@@H](Cc2ccccc2)NC(=O)[C@H](Cc2c[nH]cn2)NC1=O [Peptide No. 1, Ac-Arg-cyclo(Asp-His- D-Phe-Arg-Trp-Lys)- NH2] | 0.103 µM | agonist | reduce food intake and decrease the rate of change in body weight | statistically significant | 0.003 µM | 0.004 µM |  |  |  |  | observed spontaneous erections compared to vehicle (Male Sprague-Dawley rats [2]; rats, IV, doses of 0.3 or 1 mg/kg): statistically significant increase; decrease in food consumption compared to control (Male Sprague-Dawley rats [4]; 0.3 mg/kg, 0-2, 0-4 and 0-20 hour periods): statistically significant |
| CC(=O)N[C@@H](CCCNC(=N)N)C(=O)N[C@H]1CC(=O)NCCCC[C@@H](C(N)=O)NC(=O)[C@H](Cc2c[nH]c3ccccc23)NC(=O)[C@H](CCCNC(=N)N)NC(=O)[C@@H](Cc2ccccc2)NC(=O)[C@H](C(C)C)NC1=O [Peptide No. 16, Ac-Arg-cyclo(Asp-Val- D-Phe-Arg-Trp-Lys)- NH2] | 1.05 µM | partial agonist | reduce food intake and decrease the rate of change in body weight | statistically significant |  | 0.323 µM |  |  |  |  | decrease in food consumption compared to control (Male Sprague-Dawley rats [4]; 0.3 mg/kg, 0-2 and 0-4 hour periods): statistically significant |
| CC(=O)N[C@@H](CCCNC(=N)N)C(=O)N[C@H]1CC(=O)NCCCC[C@@H](C(N)=O)NC(=O)[C@H](Cc2c[nH]c3ccccc23)NC(=O)[C@H](CCCNC(=N)N)NC(=O)[C@@H](Cc2ccccc2)NC(=O)[C@H](CCC(N)=O)NC1=O [Peptide No. 32, Ac-Arg-cyclo(Asp-Gln- D-Phe-Arg-Trp-Lys)- NH2] |  | agonist |  |  | 0.133 µM | 0.673 µM |  |  |  |  | Ki (hMC3-R [7]): 0.34 µM; observed spontaneous erections (Male Sprague-Dawley rats [2]; rats, subcutaneous, doses of 1, 3 or 10 mg/kg): increase in observed spontaneous erections |
| CC(=O)N[C@@H](CCCNC(=N)N)C(=O)N[C@H]1CCCNC(=O)CC[C@@H](C(N)=O)NC(=O)[C@H](Cc2c[nH]c3ccccc23)NC(=O)[C@H](CCCNC(=N)N)NC(=O)[C@@H](Cc2ccccc2)NC(=O)[C@H](CC(N)=O)NC1=O [compound 154, Ac-Arg-cyclo(Orn-Asn- D-Phe-Arg-Trp-Glu)- NH2] |  |  |  |  |  |  | 0.025 µM | ~42 min | robustly induce a penile erection | 0.688 µM |  |
| CC(=O)N[C@@H](CCCNC(=N)N)C(=O)N[C@H]1CCCCNC(=O)C[C@@H](C(N)=O)NC(=O)[C@H](Cc2c[nH]c3ccccc23)NC(=O)[C@H](CCCNC(=N)N)NC(=O)[C@@H](Cc2ccccc2)NC(=O)[C@H](CC(N)=O)NC1=O [compound 155, Ac-Arg-cyclo(Lys-Asn- D-Phe-Arg-Trp-Asp)- NH2] (HELM PEPTIDE1{[ac].R.K.N.[dF].R.W.D.[am]}$PEPTIDE1,PEPTIDE1,3:R3-8:R3$$$V2.0) |  |  |  |  |  |  | 0.014 µM | ~42 min | robustly induce a penile erection | 0.24 µM | EC50 (hMC4-R [3]): 0.000189 µM; Ki (hMC4-R [11]; averaged, [I125]-NDP-α-MSH (values not marked *), read-out: MC4-R Ki): 0.005 µM; Ki (hMC4-R [11]; read-out: hMC4-R (Ki)): 0.005 µM |
